The source of these data is paper PMC406516 (BMC Clinical Pharmacology, 2004).

Data set [1] concerns the target defatted human serum albumin (Sigma albumin) (Homo sapiens, UniProt P02768). Put plainly: Drug binding by ultrafiltration in Sigma albumin solution. The following applies: isolated protein, pH 7.4.
For a further data set, the system named is albumin. To be noted: cited from earlier work.
The target of data set [2] is Pharmaceutical-grade albumin Pharmacia & Upjohn (Homo sapiens, UniProt P02768).
Pharmaceutical-grade albumin Pharmacia & Upjohn, sequence (P02768 25-609): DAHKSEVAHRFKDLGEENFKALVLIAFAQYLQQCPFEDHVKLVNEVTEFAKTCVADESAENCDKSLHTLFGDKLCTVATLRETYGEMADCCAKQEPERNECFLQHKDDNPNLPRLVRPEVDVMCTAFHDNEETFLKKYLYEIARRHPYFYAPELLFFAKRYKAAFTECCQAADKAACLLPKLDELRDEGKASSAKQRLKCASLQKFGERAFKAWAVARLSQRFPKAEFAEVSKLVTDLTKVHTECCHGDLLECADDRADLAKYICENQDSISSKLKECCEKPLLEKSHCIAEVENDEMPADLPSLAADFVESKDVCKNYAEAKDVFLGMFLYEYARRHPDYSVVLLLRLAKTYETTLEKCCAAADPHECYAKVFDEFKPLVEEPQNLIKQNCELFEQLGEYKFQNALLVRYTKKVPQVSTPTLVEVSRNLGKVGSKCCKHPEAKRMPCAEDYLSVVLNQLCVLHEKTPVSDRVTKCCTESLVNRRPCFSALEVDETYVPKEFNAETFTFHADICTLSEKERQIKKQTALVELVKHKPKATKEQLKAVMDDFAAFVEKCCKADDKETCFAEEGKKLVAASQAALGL
Data set [3] has as its target Pharmaceutical-grade albumin Baxter/Immuno (Homo sapiens, UniProt P02768).
Data set [4] has as its target in-process albumin (Octapharma, before addition of stabilisers and final heating) (Homo sapiens, UniProt P02768). In words: Drug binding by ultrafiltration in in-process albumin from Octapharma. The following applies: mean (SD), 5 experiments.
The target in another data set is Human serum (Homo sapiens, UniProt P02768). Put plainly: Drug binding by ultrafiltration in native human serum.
Human serum, sequence (P02768 25-609): as above
Data set [5] concerns the target albumin solutions from Baxter/Immuno, Octapharma, and Pharmacia & Upjohn (Homo sapiens, UniProt P02768).
Data set [6] concerns the target Pharmaceutical-grade albumin Octapharma (Homo sapiens, UniProt P02768). In words: Drug binding by ultrafiltration in pharmaceutical-grade albumin from Octapharma. The following applies: for n1 (specific binding sites): Final product.
Data set [7] has as its target Sigma albumin and native human serum (Homo sapiens, UniProt P02768). To be noted: relative to K1 of naproxen; summary of Table 2.
[8] abbreviates: Pharmacia & Upjohn albumin 0.615 mmol/L, Scatchard, mean (SD), 5 experiments.
Where [9] appears, read: human, isolated protein, pH 7.4.
Setting [10] is: Baxter/Immuno albumin 0.615 mmol/L, Scatchard, mean (SD), 5 experiments.
Where [11] appears, read: human serum, Scatchard, mean (SD), 5 experiments.
[12] abbreviates: charcoal treated, mean (SD), 5 experiments.
Setting [13] is: Octapharma albumin 0.615 mmol/L, Scatchard, mean (SD), 5 experiments.

Pharmaceutical-grade albumin Baxter/Immuno, sequence (P02768 25-609): as above
Pharmaceutical-grade albumin Octapharma, sequence (P02768 25-609): as above
in-process albumin (Octapharma, before addition of stabilisers and final heating), sequence (P02768 25-609): as above
albumin solutions from Baxter/Immuno, Octapharma, and Pharmacia & Upjohn, sequence (P02768 25-609): as above
Sigma albumin and native human serum, sequence (P02768 25-609): as above
defatted human serum albumin (Sigma albumin), sequence (P02768 25-609): as above

As for `C[C@H]1O[C@@H](O[C@H]2[C@@H](O)C[C@H](O[C@H]3[C@@H](O)C[C@H](O[C@H]4CC[C@@]5(C)[C@H](CC[C@@H]6[C@@H]5CC[C@]5(C)[C@@H](C7=CC(=O)OC7)CC[C@]65O)C4)O[C@@H]3C)O[C@@H]2C)C[C@H](O)[C@@H]1O` [Digitoxin, digitoxin], the fraction unbound at 30 min in data set [1] worked out at 0.051; in data set [2] (setting [9]), 0.115; in [3] (setting [9]) it was 0.111; at Human serum (human, serum, pH 7.4), 0.049; in [6] (setting [9]), 0.1. In addition, in the data set on albumin, the albumin-bound entry was “more than 95%”. For the same compound, the “Specific binding n1 (number of binding sites)” value in [2] (setting [8]) was 1.4 (0.3); in data set [3] (setting [10]) it was 1.1 (0.1); on Human serum (setting [11]) it was 1.8 (0.5); in data set [6] (setting [13]), 0.9 (0.03). Also, the “n1 (specific binding sites)” value in data set [4] (charcoal treated) was 0.8 (0.03); in data set [4] (not charcoal treated), 0.8 (0.03); in [6] (setting [12]), 1.3 (0.2); in data set [6] (not charcoal treated, mean (SD), 5 experiments), 1.1 (0.1). Further, the “free fraction higher than in native human serum and Sigma albumin” value in [5] (pharmaceutical-grade albumins versus native human serum and Sigma albumin) is recorded as roughly 2 times. Besides, the “K1 higher than that of naproxen” value in data set [7] is on record as roughly 100 times.
As for `COc1ccc2cc([C@H](C)C(=O)O)ccc2c1` [Naproxen, naproxen], the “Non Specific binding n2 (number of binding sites)” value is recorded as 3.8 (0.3) in data set [2] (setting [8]), 3.8 (0.2) in data set [3] (setting [10]), 3.9 (0.2) on Human serum (setting [11]) and 4.0 (0.3) in [6] (setting [13]). At Human serum (setting [11]), the “Specific binding n1 (number of binding sites)” value is given as 1.0 (0.1). Further, in data set [5] (albumin solutions from Baxter/Immuno, Octapharma, and Pharmacia & Upjohn), the specific binding result is “abolished”. Moreover, the “n1 (specific binding sites)” value in [6] (setting [12]) is 1.1 (0.1); in data set [6] (charcoal treated, mean (SD), 5 experiments, listed as naproxen) it was 1.1 ± 0.1.
